“And” between values parts separate entries of the source, which are not always exact repeats. Equal entries are not always repeated. Inconclusive results and toxic doses are left out. Rule as the data show it: active = T/C of 150% or more; inactive = T/C below 125%.
System: L1210 leukemia ip in BDF1 mice, survival T/C
Test: NCI In Vivo Anticancer Drug Screen. Data for tumor model L1210 Leukemia (intraperitoneal) in B6D2F1 (BDF1) mice
Conditions: endpoint: mean survival time, higher = longer survival
How it was run: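 Value reflects the ratio of survival in compound-treated mice to survival in vehicle-treated controls, with both groups carrying the same transplanted tumor.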

[1] = dose: 100.0 mg/kg/injection, schedule: Q04DX003 (ip), vehicle: saline with Tween-80
[2] = dose: 200.0 mg/kg/injection, schedule: Q04DX003 (ip), vehicle: saline with Tween-80
[3] = dose: 100.0 mg/kg/injection, schedule: Q01DX009 (ip), vehicle: saline with Tween-80
[4] = dose: 200.0 mg/kg/injection, schedule: Q01DX009 (ip), vehicle: saline with Tween-80
[5] = dose: 400.0 mg/kg/injection, schedule: Q04DX003 (ip), vehicle: saline with Tween-80
[6] = dose: 100.0 mg/kg/injection, schedule: Q04DX002 (ip), vehicle: Klucel (hydroxypropylcellulose) (HPC)

Measured: T/C

COc1ccc(/C=N/N=C(N)N)cc1S(=O)(=O)O
inactive: dose: 15.0 mg/kg/injection, schedule: Q01DX Z (ip), vehicle: saline 95 % of control | dose: 30.0 mg/kg/injection, schedule: Q01DX Z (ip), vehicle: saline 90 % of control | dose: 60.0 mg/kg/injection, schedule: Q01DX Z (ip), vehicle: saline 88 % of control | dose: 60.0 mg/kg/injection, schedule: Q01DX Z (oral), vehicle: saline 95 % of control | dose: 120.0 mg/kg/injection, schedule: Q01DX Z (ip), vehicle: saline 92 % of control | dose: 120.0 mg/kg/injection, schedule: Q01DX Z (oral), vehicle: saline 97 % of control | dose: 240.0 mg/kg/injection, schedule: Q01DX Z (oral), vehicle: saline 97 % of control | dose: 480.0 mg/kg/injection, schedule: Q01DX Z (oral), vehicle: saline 98 % of control

CCOc1ccc(-c2nccs2)cc1N
inactive: dose: 75.0 mg/kg/injection, schedule: Q04DX003 (ip), vehicle: Klucel (hydroxypropylcellulose) (HPC) 104 % of control | dose: 150.0 mg/kg/injection, schedule: Q04DX003 (ip), vehicle: Klucel (hydroxypropylcellulose) (HPC) 92 % of control | dose: 300.0 mg/kg/injection, schedule: Q04DX003 (ip), vehicle: Klucel (hydroxypropylcellulose) (HPC) 93 % of control

CC(C)(C)N=C=NC(c1ccccc1)(c1ccccc1)c1ccccc1
inactive: dose: 100.0 mg/kg/injection, schedule: Q04DX003 (ip), vehicle: saline 97 % of control | dose: 200.0 mg/kg/injection, schedule: Q04DX003 (ip), vehicle: saline 94 % of control | dose: 400.0 mg/kg/injection, schedule: Q04DX003 (ip), vehicle: saline 87 % of control

CCOc1cc(C=Nc2cccc(C(F)(F)F)c2)ccc1O
inactive: dose: 100.0 mg/kg/injection, schedule: Q01DX009 (ip), vehicle: other 100 % of control | dose: 100.0 mg/kg/injection, schedule: Q04DX003 (ip), vehicle: other 95 % of control | dose: 200.0 mg/kg/injection, schedule: Q01DX009 (ip), vehicle: other 99 % of control | dose: 200.0 mg/kg/injection, schedule: Q04DX003 (ip), vehicle: other 90 % of control | dose: 400.0 mg/kg/injection, schedule: Q04DX003 (ip), vehicle: other 92 % of control

COc1cc([N+](=O)[O-])c(N)c([N+](=O)[O-])c1
inactive: dose: 50.0 mg/kg/injection, schedule: Q01DX001 (ip), vehicle: saline 96 % of control | dose: 100.0 mg/kg/injection, schedule: Q01DX001 (ip), vehicle: saline 108 % of control | dose: 200.0 mg/kg/injection, schedule: Q01DX001 (ip), vehicle: saline 96 % of control | dose: 400.0 mg/kg/injection, schedule: Q01DX001 (ip), vehicle: saline 93 % of control

CCOC(=O)c1cnc(SCc2ccccc2)nc1Nc1ccccc1Cl
inactive: [1] 94 % of control | [2] 88 % of control

COc1ccc2c(c1)CCC1C2CCC2C(O)CCC(=O)C21 (stereo not drawn)
inactive: dose: 50.0 mg/kg/injection, schedule: Q01DX001 (ip), vehicle: Klucel (hydroxypropylcellulose) (HPC) 102 % of control | dose: 100.0 mg/kg/injection, schedule: Q01DX001 (ip), vehicle: Klucel (hydroxypropylcellulose) (HPC) 102 % of control | dose: 200.0 mg/kg/injection, schedule: Q01DX001 (ip), vehicle: Klucel (hydroxypropylcellulose) (HPC) 98 % of control

CC(=O)Nc1cc([N+](=O)[O-])cc(C)c1O
inactive: [3] 97 % of control | [4] 89 % of control

O=C(N/N=C\c1cccc2ccccc12)C(=O)N/N=C/c1cccc2ccccc12
inactive: [1] 88 % of control | [2] 88 % of control | [5] 91 % of control

O=[Se](c1ccccc1)c1ccccc1
inactive: dose: 25.0 mg/kg/injection, schedule: Q04DX002 (ip), vehicle: Klucel (hydroxypropylcellulose) (HPC) 103 % of control | dose: 50.0 mg/kg/injection, schedule: Q04DX002 (ip), vehicle: Klucel (hydroxypropylcellulose) (HPC) 94 % of control | [6] 87 % of control

COc1ccc(F)cc1CC(N)=O
inactive: [6] 101 % of control | dose: 200.0 mg/kg/injection, schedule: Q04DX002 (ip), vehicle: Klucel (hydroxypropylcellulose) (HPC) 97 % of control | dose: 400.0 mg/kg/injection, schedule: Q04DX002 (ip), vehicle: Klucel (hydroxypropylcellulose) (HPC) 104 % of control

COc1ccc(OC(=O)OCc2ccc(OC)c(OC)c2)cc1
inactive: [1] 102 % of control | [2] 96 % of control | [5] 96 % of control

CCOC(=O)Nc1cc(Cl)c(N)c(NC(=O)OCC)n1
inactive: [3] 94 % of control | [1] 98 % of control | [4] 100 % of control | [2] 93 % of control | dose: 400.0 mg/kg/injection, schedule: Q01DX009 (ip), vehicle: saline with Tween-80 97 % of control | [5] 100 % of control

N#CSc1ccc(S(N)(=O)=O)cc1
inactive: dose: 6.25 mg/kg/injection, schedule: Q01DX009 (ip), vehicle: Klucel (hydroxypropylcellulose) (HPC) 94 % of control | dose: 12.5 mg/kg/injection, schedule: Q01DX009 (ip), vehicle: Klucel (hydroxypropylcellulose) (HPC) 92 % of control | dose: 12.5 mg/kg/injection, schedule: Q04DX003 (ip), vehicle: Klucel (hydroxypropylcellulose) (HPC) 100 % of control | dose: 25.0 mg/kg/injection, schedule: Q01DX009 (ip), vehicle: Klucel (hydroxypropylcellulose) (HPC) 106 % of control | dose: 25.0 mg/kg/injection, schedule: Q04DX003 (ip), vehicle: Klucel (hydroxypropylcellulose) (HPC) 105 % of control

O=C(Nc1ccc(F)cc1)Nc1ccc(Cl)cc1[N+](=O)[O-]
inactive: dose: 50.0 mg/kg/injection, schedule: Q01DX009 (ip), vehicle: saline with Tween-80 94 % of control and 95 % of control | dose: 100.0 mg/kg/injection, schedule: Q01DX001 (ip), vehicle: saline with Tween-80 100 % of control | dose: 100.0 mg/kg/injection, schedule: Q04DX002 (ip), vehicle: saline with Tween-80 102 % of control and 92 % of control | [1] 100 % of control | dose: 200.0 mg/kg/injection, schedule: Q01DX001 (ip), vehicle: saline with Tween-80 95 % of control | dose: 200.0 mg/kg/injection, schedule: Q04DX002 (ip), vehicle: saline with Tween-80 95 % of control and 101 % of control | [2] 97 % of control | dose: 400.0 mg/kg/injection, schedule: Q01DX001 (ip), vehicle: saline with Tween-80 92 % of control | dose: 400.0 mg/kg/injection, schedule: Q04DX002 (ip), vehicle: saline with Tween-80 93 % of control and 98 % of control | [5] 94 % of control

CC(C)NC(=S)Nc1ccccc1
inactive: dose: 75.0 mg/kg/injection, schedule: Q01DX001 (ip), vehicle: other 102 % of control

O=Nn1c2ccccc2c2ccccc21
inactive: dose: 100.0 mg/kg/injection, schedule: Q04DX003 (ip), vehicle: gum acacia 92 % of control | dose: 200.0 mg/kg/injection, schedule: Q04DX003 (ip), vehicle: gum acacia 95 % of control | dose: 400.0 mg/kg/injection, schedule: Q04DX003 (ip), vehicle: gum acacia 87 % of control

O=c1ccccn1C/C(=N\O)c1ccccc1
inactive: dose: 100.0 mg/kg/injection, schedule: Q01DX009 (ip), vehicle: Klucel (hydroxypropylcellulose) (HPC) 98 % of control | dose: 100.0 mg/kg/injection, schedule: Q04DX003 (ip), vehicle: Klucel (hydroxypropylcellulose) (HPC) 107 % of control | dose: 200.0 mg/kg/injection, schedule: Q01DX009 (ip), vehicle: Klucel (hydroxypropylcellulose) (HPC) 100 % of control | dose: 200.0 mg/kg/injection, schedule: Q04DX003 (ip), vehicle: Klucel (hydroxypropylcellulose) (HPC) 98 % of control | dose: 400.0 mg/kg/injection, schedule: Q01DX009 (ip), vehicle: Klucel (hydroxypropylcellulose) (HPC) 107 % of control | dose: 400.0 mg/kg/injection, schedule: Q04DX003 (ip), vehicle: Klucel (hydroxypropylcellulose) (HPC) 100 % of control

CN(C(=O)c1ccncc1)c1ccccc1
inactive: dose: 50.0 mg/kg/injection, schedule: Q01DX009 (ip), vehicle: carboxymethylcellulose (CMC) 93 % of control and 98 % of control | dose: 50.0 mg/kg/injection, schedule: Q04DX002 (ip), vehicle: carboxymethylcellulose (CMC) 95 % of control and 100 % of control | dose: 50.0 mg/kg/injection, schedule: Q04DX003 (ip), vehicle: carboxymethylcellulose (CMC) 95 % of control | dose: 100.0 mg/kg/injection, schedule: Q01DX009 (ip), vehicle: carboxymethylcellulose (CMC) 98 % of control and 90 % of control | dose: 100.0 mg/kg/injection, schedule: Q04DX002 (ip), vehicle: carboxymethylcellulose (CMC) 100 % of control (2×) and 106 % of control | dose: 100.0 mg/kg/injection, schedule: Q04DX003 (ip), vehicle: carboxymethylcellulose (CMC) 97 % of control | dose: 200.0 mg/kg/injection, schedule: Q01DX009 (ip), vehicle: carboxymethylcellulose (CMC) 90 % of control and 91 % of control | dose: 200.0 mg/kg/injection, schedule: Q04DX002 (ip), vehicle: carboxymethylcellulose (CMC) 97 % of control (2×) and 98 % of control | dose: 200.0 mg/kg/injection, schedule: Q04DX003 (ip), vehicle: carboxymethylcellulose (CMC) 98 % of control | dose: 400.0 mg/kg/injection, schedule: Q04DX002 (ip), vehicle: carboxymethylcellulose (CMC) 93 % of control

Reference: PubChem BioAssay AID248 (DTP/NCI, 2004)
